Laboratory results reported in patent US4696912A, “Stabilized compositions” (priority 1986, dated 1987).
Converted amounts (≈) assume the structure as drawn. Where two headings read alike, the source gives them in different places.

Key:
Saccharomyces italicus = test: Antifungal activity, paper disk zone of inhibition; assay type: cell-based; conditions: 12.7 mm paper disks, 500 ug/ml, overnight at 28° C.; read-out: Zone diameter
Method: (§1) Paper disks (12.7 mm in diameter) impregnated with an aqueous solution containing 500 ug of CL-1565-A/ml were placed on a layer of agar inoculated with the indicated microorganisms. After incubation overnight at 28° C., the following zones of inhibition were observed.

Saccharomyces cervisiae = test: Antifungal activity, paper disk zone of inhibition; assay type: cell-based; conditions: 12.7 mm paper disks, 500 ug/ml, overnight at 28° C., read-out: Zone diameter
Method: as §1

P388 Lymphatic Leukemia = test: In vivo antitumor activity against P388 lymphatic leukemia in mice
Source text: In Vivo Antitumor Activity of CL-1565-A Against P388 Lymphatic Leukemia in Mice
The test method used is based on that described in Cancer Chemother. Reports 3:1-87 (part 3). 1972.

L1210 Leukemia Cells = test: In vitro activity of CL-1565-A against L1210 leukemia cells; assay type: cell-based; conditions: Mus musculus, read-out: ID50 (the source's name)
[1] = Stability in aqueous solution (HPLC assay); assay type: physicochemical; conditions: for remaining at 168 h / remaining at 336 h / remaining at 552 h / remaining at 48 h: aqueous solution, read-out: % CL-1565-A Remaining; for remaining at 168 h: 7 days; for remaining at 336 h: 14 days; for remaining at 48 h: 2 days
Method: ^b Solutions prepared by adding sodium ascorbate to solutions of
CL1565-A to yield an equimolar concentration.
(§2) CL-1565-A content was assayed by HPLC using a uBondapak C-18 silica gel column (Waters Assoc.) and 0.05 M pH 6.8 sodium phosphate buffer--acetonitrile (89:11) as the mobile phase, at a flow rate of 2 mL/minute. The retention time of CL-1565-A in this system is approximately 4.7 minutes. Solid samples were reconstituted in 100 mL of water immediately prior to HPLC assay. Solutions of CL-1565-A were diluted to a final concentration of 300 ug/mL with water prior to assay.

[2] = Stability in solid state form (HPLC assay); assay type: physicochemical; conditions: for remaining at 168 h / remaining at 504 h / remaining at 840 h: Table 1, solid state; for remaining at 168 h: 1 week; for remaining at 168 h / remaining at 504 h / remaining at 840 h / remaining at 2160 h / remaining at 3600 h / remaining at 6480 h / remaining at 16560 h: read-out: % CL-1565-A Remaining; for remaining at 504 h: 3 weeks; for remaining at 840 h: 5 weeks; for remaining at 2160 h / remaining at 3600 h / remaining at 6480 h / remaining at 16560 h: Table 3, solid form; for remaining at 2160 h: 3 months; for remaining at 3600 h: 5 months; for remaining at 6480 h: 9 months; for remaining at 16560 h: 23 months
Method: *Samples prepared by lyophilization of 1.5 mL aliquots of an aqueous
solution containing 15 mg of CL1565-A per ml.
^a Samples prepared by lyophilization of 1.5 mL of an aqueous solutio
containing 15 mg/mL of CL1565-A in 6mL serum vials.
^b Samples prepared by mixing CL1565-A and sodium ascorbate (1:1 mola
ratio) in solution prior to lyophilization.
as §2

[3] = Table 2, aqueous solution 5 mg/mL, 5° C.
[4] = Table 2, aqueous solution 5 mg/mL, 25° C.
[5] = Table 2, aqueous solution 15 mg/mL, 5° C.
[6] = Table 2, aqueous solution 15 mg/mL, 25° C.

Q: For `CC(O)(C=CC1CC=CC(=O)O1)C(CC(O)C=CC=CC=CCO)OP(=O)(O)O` (stereo not shown) [CL-1565-A], which zone of inhibition at 500 µg/mL (Saccharomyces italicus) is on record?
A: 17 mm

Q: What about the zone of inhibition at 500 µg/mL (Saccharomyces cervisiae) of the same molecule?
A: 25 mm

Q: What about the “T/C × 100” value (P388 Lymphatic Leukemia; 1.1 mg/kg/day, test-1) of the same molecule?
A: 170

Q: What about the “T/C × 100” value (P388 Lymphatic Leukemia; 1.1 mg/kg/day, test-2) of the same molecule?
A: 139

Q: And the “T/C × 100” value (P388 Lymphatic Leukemia; 2.1 mg/kg/day, test-1)?
A: 173

Q: What about the “T/C × 100” value (P388 Lymphatic Leukemia; 2.1 mg/kg/day, test-2) of the same molecule?
A: 157

Q: And the “T/C × 100” value (P388 Lymphatic Leukemia; 4.3 mg/kg/day, test-1)?
A: 170

Q: What about the “T/C × 100” value (P388 Lymphatic Leukemia; 4.3 mg/kg/day, test-2) of the same molecule?
A: 172

Q: What about the “T/C × 100” value (P388 Lymphatic Leukemia; 6.3 mg/kg/day, test-3) of the same molecule?
A: 142

Q: What about the “T/C × 100” value (P388 Lymphatic Leukemia; 8.5 mg/kg/day, test-1) of the same molecule?
A: 256

Q: And the “T/C × 100” value (P388 Lymphatic Leukemia; 8.5 mg/kg/day, test-2)?
A: 209

Q: What about the “T/C × 100” value (P388 Lymphatic Leukemia; 12.5 mg/kg/day, test-3) of the same molecule?
A: 150

Q: What about the “T/C × 100” value (P388 Lymphatic Leukemia; 17 mg/kg/day, test-1) of the same molecule?
A: 256

Q: What about the “T/C × 100” value (P388 Lymphatic Leukemia; 17 mg/kg/day, test-2) of the same molecule?
A: 248

Q: What about the “T/C × 100” value (P388 Lymphatic Leukemia; 25 mg/kg/day, test-3) of the same molecule?
A: 174

Q: And the IC50 (L1210 Leukemia Cells)?
A: 0.078 µg/mL (≈ 0.181 µM)

Q: What about the remaining at 168 h [1, 3] of the same molecule?
A: 92%

Q: What about the remaining at 336 h [1, 3] of the same molecule?
A: 83%

Q: What about the remaining at 552 h ([1]; Table 2, aqueous solution 5 mg/mL, 5° C., 23 days) of the same molecule?
A: 76%

Q: What about the remaining at 168 h [1, 4] of the same molecule?
A: 77%

Q: What about the remaining at 336 h [1, 4] of the same molecule?
A: 63%

Q: What about the remaining at 552 h ([1]; Table 2, aqueous solution 5 mg/mL, 25° C., 23 days) of the same molecule?
A: 45%

Q: What about the remaining at 168 h [1, 5] of the same molecule?
A: 81%

Q: And the remaining at 336 h [1, 5]?
A: 76%

Q: And the remaining at 552 h ([1]; Table 2, aqueous solution 15 mg/mL, 5° C., 23 days)?
A: 66%

Q: And the remaining at 168 h [1, 6]?
A: 67%

Q: And the remaining at 336 h [1, 6]?
A: 55%

Q: What about the remaining at 552 h ([1]; Table 2, aqueous solution 15 mg/mL, 25° C., 23 days) of the same molecule?
A: 42%

Q: What about the remaining at 168 h ([1]; Table 2, aqueous solution 15 mg/mL, 37° C.) of the same molecule?
A: 35%

Q: And the remaining at 48 h ([1]; Table 4, aqueous solution 15 mg/mL, 5° C.)?
A: 90%

Q: And the remaining at 552 h ([1]; Table 4, aqueous solution 15 mg/mL, 5° C., 23 days)?
A: 66%

Q: What about the remaining at 48 h ([1]; Table 4, aqueous solution 15 mg/mL, 25° C.) of the same molecule?
A: 87%

Q: And the remaining at 552 h ([1]; Table 4, aqueous solution 15 mg/mL, 25° C., 23 days)?
A: 42%

Q: What about the degraded at 552 h ([1]; water, 23 days, 15 mg/mL in aqueous solution, read-out: decomposition) of the same molecule?
A: 48%

Q: And the remaining at 168 h ([2]; 5° C.)?
A: 100%

Q: What about the remaining at 504 h ([2]; 5° C.) of the same molecule?
A: 100%

Q: What about the remaining at 840 h ([2]; 5° C.) of the same molecule?
A: 100%

Q: And the remaining at 168 h ([2]; 25° C.)?
A: 87%

Q: What about the remaining at 504 h ([2]; 25° C.) of the same molecule?
A: 77%

Q: What about the remaining at 840 h ([2]; 25° C.) of the same molecule?
A: 69%

Q: What about the remaining at 168 h ([2]; 37° C.) of the same molecule?
A: 70%

Q: And the remaining at 504 h ([2]; 37° C.)?
A: 26%

Q: And the remaining at 168 h ([2]; -15° C.)?
A: 100%

Q: What about the remaining at 504 h ([2]; -15° C.) of the same molecule?
A: 100%

Q: What about the remaining at 840 h ([2]; -15° C.) of the same molecule?
A: 100%

Q: What about the remaining at 2160 h ([2]; 5°) of the same molecule?
A: 88%

Q: What about the remaining at 3600 h ([2]; 5°) of the same molecule?
A: 86%

Q: And the remaining at 6480 h ([2]; 5°)?
A: 79%

Q: And the remaining at 16560 h ([2]; 5°)?
A: 74%

Q: What about the remaining at 2160 h ([2]; 25°) of the same molecule?
A: 61%

Q: What about the remaining at 2160 h ([2]; -15°) of the same molecule?
A: 100%

Q: And the remaining at 3600 h ([2]; -15°)?
A: 100%

Q: And the remaining at 6480 h ([2]; -15°)?
A: 100%

Q: And the remaining at 16560 h ([2]; -15°)?
A: 100%

Q: And the degraded at 840 h ([2]; five weeks at 25° C., read-out: decomposition)?
A: 31%
